Where two headings read alike, the source gives them in different places.
Assays:
C57BL/6JxFVB hybrid mice [1] = assay: Glucose tolerance test; type: in vivo; conditions: males and females; 300 µg/kg vs control; 19 weeks; data not shown
Procedure: (§1) One week later, at 20 weeks of age, an insulin tolerance test (ITT) was performed in the same animals as used for the GTT. Mice were not fasted to avoid low glucose baseline levels which, after an insulin injection, could lead to hypoglycemia. At the start of the experiment, a baseline blood sample was taken (0 min). […] The experiment was performed over two morning sessions, with 1.75 h between the first and last tested animal in each session, and animals were treated in a random order. At the age of 22–25 weeks, control and 300 µg/kg bw/d animals were used for a spontaneous locomotor activity test. After an acclimatization period of minimal 6 h, activity of the mice was continuously registered on four parallel platforms for 36 h (males) or 60 h (females), starting at the beginning of the dark phase (6.30 PM) of the first day.
(§2) Some measurements included only control and one or two dose groups and could therefore not be analyzed as dose–responses. GTT was therefore evaluated by repeated-measures or nested (to account for litter covariance) two-way ANOVAs (Graphpad Prism 5.0, R) to detect differences at the different time points and between the areas under the curve (AUC). Activity measurement, ucp1 expression, WAT adipocyte size and the proxy for cell number were also tested with a nested ANOVA (R). […]

C57BL/6JxFVB hybrid mice [2] = assay: Histopathology of brown adipose tissue; type: in vivo
Procedure: (§3) Some measurements included only control and one or two dose groups and could therefore not be analyzed as dose–responses. GTT was therefore evaluated by repeated-measures or nested (to account for litter covariance) two-way ANOVAs (Graphpad Prism 5.0, R) to detect differences at the different time points and between the areas under the curve (AUC). Activity measurement, ucp1 expression, WAT adipocyte size and the proxy for cell number were also tested with a nested ANOVA (R). Differences in distribution of BAT histopathology scores between experimental groups were tested for statistical significance in a two-tailed Fisher’s exact test.

C57BL/6JxFVB hybrid mice [3] = assay: Serum lipids and glucose; conditions: for Emax: Mus musculus
[4] = cited from earlier work
ucp1 = ucp1 gene expression in brown adipose tissue (qPCR); type: in vivo, mice; conditions: males and females; 300 and 3000 µg/kg vs control; data not shown
Procedure: as §3

[5] = Tolerable daily intake and human dietary exposure; design: species or system humans
[6] = cited from earlier work; remark: listed apart in the source
C57BL/6JxFVB hybrid mice [7] = assay: Insulin tolerance test; type: in vivo; conditions: males and females; 300 µg/kg vs control; 20 weeks; data not shown
Procedure: as §1

C57BL/6JxFVB hybrid mice [8] = assay: Histopathology of liver; type: in vivo; conditions: for Liver nuclear dysmorphology: count of individuals with Grade 0 / Liver nuclear dysmorphology: count of individuals with Grades 1, 2: p = 0.06 vs control
C57BL/6JxFVB hybrid mice [9] = assay: Spontaneous locomotor activity test; type: in vivo; conditions: males and females; 300 µg/kg vs control; data not shown
Procedure: as §1, §2

[10] = ref EFSA [2012]; EFSA [2008]; cited from earlier work
rodents = test system: rodents; design: method as in EFSA [2008]; conditions: basis of the TDI; ref EFSA [2008]; cited from earlier work
[11] = females, 300 and 3000 combined, p = 0.097 vs control
[12] = males, 300 and 3000 combined, p < 0.05 vs control
[13] = males, 300 and 3000 µg PFOA/kg body weight/day combined, p = 0.07 vs control

With `O=C(O)C(F)(F)C(F)(F)C(F)(F)C(F)(F)C(F)(F)C(F)(F)C(F)(F)F` [PFOA, Perfluorooctanoic acid] the “Glucose homeostasis: GTT” value (C57BL/6JxFVB hybrid mice [1]) was “did not show an effect”, the “Brown adipose tissue (interscapular fat pad) histopathology” value (C57BL/6JxFVB hybrid mice [2]; females vs control females, p = 0.097) was “trend for lipid depletion” and the “Brown adipose tissue lipid accumulation: count of individuals with Grade 3” value (C57BL/6JxFVB hybrid mice [2]; [11]) was 4. For the same compound, the “Brown adipose tissue lipid accumulation: count of individuals with Grades 1, 2” value (C57BL/6JxFVB hybrid mice [2]; [11]) was 14, the “Brown adipose tissue (interscapular fat pad) histopathology” value (C57BL/6JxFVB hybrid mice [2]; males vs control males) was “significant lipid accumulation” and the “Brown adipose tissue lipid accumulation: count of individuals with Grades 1, 2, 3” value (C57BL/6JxFVB hybrid mice [2]; [12]) was 4. The “Brown adipose tissue lipid accumulation: count of individuals with Grades 4, 5, 6” value (C57BL/6JxFVB hybrid mice [2]; [12]) was 13, the “Serum triglycerides: BMDU/BMDL” value (C57BL/6JxFVB hybrid mice [3]; F1 females) was 100 and the “Serum cholesterol: BMDL” value (C57BL/6JxFVB hybrid mice [3]; F1 females, CES 5 %) was 402 µg/kg bw/d. For the same compound, the “Serum cholesterol: BMDU” value (C57BL/6JxFVB hybrid mice [3]; F1 females, CES 5 %) was 1284 µg/kg bw/d, the “Serum triglycerides: BMDL” value (C57BL/6JxFVB hybrid mice [3]; F1 females, CES 5 %) was 6.2 µg/kg bw/d and the “Serum triglycerides: BMDU” value (C57BL/6JxFVB hybrid mice [3]; F1 females, CES 5 %) was 623 µg/kg bw/d. For the same compound, the Emax (C57BL/6JxFVB hybrid mice [3]; read-out: Serum cholesterol: max effect size) was -20%, the Emax (C57BL/6JxFVB hybrid mice [3]; read-out: Serum triglycerides: max effect size) was -27% and the “Level in adult human serum samples” value ([4]; detected globally, ref Calafat et al. [2007]) was 3.6 to 4.3 ng/mL. For the same compound, the “Level in serum of pregnant mothers” value ([4]; ref Grandjean et al. [2012]) was 2.6 to 4.0 ng/mL, the “Level in cord plasma” value ([4]; ref de Cock et al. [2014]) was 0.3 to 2.7 ng/mL and the “ucp1 expression in brown adipose tissue” value (ucp1) was “did not show an effect”. The “Factor by which the lowered TDI is higher than the human dietary exposure range in infants” value [5] was 15, the “TDI when applying the developmental BMDL of 46 µg/kg bw/d” value [5] was 230 ng/kg bw/d and the “Elimination half-life in adult mice” value ([6]; adult mice, ref Lau et al. [2006]) was 17 days. For the same compound, the “Time to steady-state level in serum of mice” value ([6]; ref Lau et al. [2006]) was ≤ 1 week, the “Lowering of levels in offspring after maternal exposure was stopped” value ([6]; within 6 weeks, ref Wolf et al. ([2007])) was 40 times and the “Glucose homeostasis: ITT” value (C57BL/6JxFVB hybrid mice [7]) was “did not show an effect”. The “Liver eosinophilic alteration: count of individuals with Grades 0, 1” value (C57BL/6JxFVB hybrid mice [8]; females, 300 and 3000 combined) was 11, the “Liver eosinophilic alteration: count of individuals with Grades 2, 3” value (C57BL/6JxFVB hybrid mice [8]; females, 300 and 3000 combined) was 8 and the “Liver fatty change: count of individuals with Grade 0” value (C57BL/6JxFVB hybrid mice [8]; females, 300 and 3000 combined) was 17. The “Liver fatty change: count of individuals with Grades 1, 2, 3” value (C57BL/6JxFVB hybrid mice [8]; females, 300 and 3000 combined) was 2, the “Liver nuclear dysmorphology: count of individuals with Grade 0” value (C57BL/6JxFVB hybrid mice [8]; females, 300 and 3000 combined) was 12 and the “Liver nuclear dysmorphology: count of individuals with Grades 1, 2” value (C57BL/6JxFVB hybrid mice [8]; females, 300 and 3000 combined) was 7. For the same compound, the “Liver eosinophilic alteration: count of individuals with Grade 0” value (C57BL/6JxFVB hybrid mice [8]; [13]) was 14, the “Liver eosinophilic alteration: count of individuals with Grades 1, 2” value (C57BL/6JxFVB hybrid mice [8]; [13]) was 6 and the “Liver fatty change: count of individuals with Grade 0” value (C57BL/6JxFVB hybrid mice [8]; males, 300 and 3000 combined) was 16. For the same compound, the “Liver fatty change: count of individuals with Grades 1, 2, 3, 4” value (C57BL/6JxFVB hybrid mice [8]; males, 300 and 3000 combined) was 4, the “Liver nuclear dysmorphology: count of individuals with Grade 0” value (C57BL/6JxFVB hybrid mice [8]; males, 300 and 3000 combined) was 13 and the “Liver nuclear dysmorphology: count of individuals with Grades 1, 2” value (C57BL/6JxFVB hybrid mice [8]; males, 300 and 3000 combined) was 7. The “Energy expenditure: physical activity” value (C57BL/6JxFVB hybrid mice [9]) was “did not show an effect”, the “Tolerable daily intake (TDI)” value [10] was 1.5 µg/kg bw/d and the “BMDL10 for liver effects in rodents” value (rodents) was 300 µg/kg bw/d.

— publication PMC4754331, “Programming of metabolic effects in C57BL/6JxFVB mice by in utero and lactational exposure to perfluorooctanoic acid” (Archives of Toxicology, 2015)
